One data set deals with PDE1C. Conditions: PDE9 versus PDE1C, cited from earlier work.
The data set “crystal structure” deals with the molecule itself. The experiment in a line: crystal structure.

Like-named read-outs stand apart in the source and are kept apart here.

For `C[C@@H]1CN(Cc2ncccn2)C[C@H]1c1nc2c(cnn2C2CCOCC2)c(=O)[nH]1` [compound 9, 6-[(3S,4S)-4-methyl-1-(pyrimidin-2-ylmethyl)pyrrolidin-3-yl]-1-(tetrahydro-2H-pyran4-yl)-1,5-dihydro-4H-pyrazolo[3,4-d]pyrimidin-4-one], the “selectivity against PDE1C” value in the data set with PDE1C was 170 fold; in the data set with PDE1C (listed as PF-04447943) it was “about 170 fold”.

B1: PDE9A2 catalytic domain (residues 181-506) (domain or fragment, UniProt O76083-2 181-506, looked up)
chain: PTYPKYLLSPETIEALRKPTFDVWLWEPNEMLSCLEHMYHDLGLVRDFSINPVTLRRWLFCVHDNYRNNPFHNFRHCFCVAQMMYSMVWLCSLQEKFSQTDILILMTAAICHDLDHPGYNNTYQINARTELAVRYNDISPLENHHCAVAFQILAEPECNIFSNIPPDGFKQIRQGMITLILATDMARHAEIMDSFKEKMENFDYSNEEHMTLLKMILIKCCDISNEVRPMEVAEPWVDCLLEEYFMQSDREKSEGLPVAPFMDRDKVTKATAQIGFIKFVLIPMFETVTKLFPMVEEIMLQPLWESRDRYEELKRIDDAMKELQKK
B1: the binding result in “crystal structure” is “binds”.

These data come from publication PMC3469756 (Journal of medicinal chemistry, 2012).
